These results are taken from paper PMC6393351, “Linking Terpene Synthases to Sesquiterpene Metabolism in Grapevine Flowers” (Frontiers in Plant Science, 2019).

Common to all, as to assay: in vivo yeast expression, HS-SPME-GC-MS of volatiles
Holding throughout (format): cell-based
Common to all, as to details: endogenous FPP of engineered yeast GT051, not added; pH 6, 5 mM Mg2+, 30 °C, 16 h

Assay [1] addresses T1, VvivMATPS10 (Vitis vinifera, UniProt A0A482AL43).
T1 construct: full-length ORF from flower cDNA; yeast GT051 (GAL1 promoter); also transient expression in N. benthamiana (pEAQ-HT-DEST1)
T1 sequence (A0A482AL43 1-560): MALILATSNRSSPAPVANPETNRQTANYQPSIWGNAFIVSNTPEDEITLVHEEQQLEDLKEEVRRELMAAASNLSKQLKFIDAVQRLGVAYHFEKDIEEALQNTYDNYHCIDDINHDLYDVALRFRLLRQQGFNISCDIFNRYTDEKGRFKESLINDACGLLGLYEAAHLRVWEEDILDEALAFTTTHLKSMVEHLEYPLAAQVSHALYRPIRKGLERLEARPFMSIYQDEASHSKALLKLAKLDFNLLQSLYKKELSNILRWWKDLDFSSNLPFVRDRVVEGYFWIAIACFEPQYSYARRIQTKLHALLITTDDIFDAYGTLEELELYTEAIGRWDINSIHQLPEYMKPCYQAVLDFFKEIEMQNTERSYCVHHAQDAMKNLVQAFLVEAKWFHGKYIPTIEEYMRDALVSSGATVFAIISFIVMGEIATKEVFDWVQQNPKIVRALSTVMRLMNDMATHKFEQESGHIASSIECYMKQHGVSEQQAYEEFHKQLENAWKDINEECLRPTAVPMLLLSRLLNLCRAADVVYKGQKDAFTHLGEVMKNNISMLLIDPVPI

Assay [2] has as its target T2, VvivSHTPS27 (Vitis vinifera, UniProt A0A482AKK8).
T2 construct: full-length ORF from cDNA; expressed in yeast GT051 under GAL1 promoter
T2 sequence (A0A482AKK8 1-557): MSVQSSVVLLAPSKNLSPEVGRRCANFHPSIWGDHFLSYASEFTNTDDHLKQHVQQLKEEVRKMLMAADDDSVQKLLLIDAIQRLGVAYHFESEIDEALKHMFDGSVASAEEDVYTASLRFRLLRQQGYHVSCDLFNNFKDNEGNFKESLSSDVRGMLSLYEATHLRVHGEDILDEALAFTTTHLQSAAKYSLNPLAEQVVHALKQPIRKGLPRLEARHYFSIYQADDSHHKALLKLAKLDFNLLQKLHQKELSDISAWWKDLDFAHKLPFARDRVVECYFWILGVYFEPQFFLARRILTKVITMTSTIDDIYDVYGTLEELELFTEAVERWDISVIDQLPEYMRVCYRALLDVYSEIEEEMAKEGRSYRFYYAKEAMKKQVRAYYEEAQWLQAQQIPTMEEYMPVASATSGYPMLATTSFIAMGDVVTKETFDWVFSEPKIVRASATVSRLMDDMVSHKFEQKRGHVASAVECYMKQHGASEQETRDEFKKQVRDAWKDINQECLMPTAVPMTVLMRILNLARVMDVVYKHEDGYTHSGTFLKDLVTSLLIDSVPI

The target of assay [3] is T3, VvivSBTPS01 (Vitis vinifera, UniProt A0A482ALZ4).
T3 construct: full-length ORF from cDNA; expressed in yeast GT051 under GAL1 promoter
T3 sequence (A0A482ALZ4 1-555): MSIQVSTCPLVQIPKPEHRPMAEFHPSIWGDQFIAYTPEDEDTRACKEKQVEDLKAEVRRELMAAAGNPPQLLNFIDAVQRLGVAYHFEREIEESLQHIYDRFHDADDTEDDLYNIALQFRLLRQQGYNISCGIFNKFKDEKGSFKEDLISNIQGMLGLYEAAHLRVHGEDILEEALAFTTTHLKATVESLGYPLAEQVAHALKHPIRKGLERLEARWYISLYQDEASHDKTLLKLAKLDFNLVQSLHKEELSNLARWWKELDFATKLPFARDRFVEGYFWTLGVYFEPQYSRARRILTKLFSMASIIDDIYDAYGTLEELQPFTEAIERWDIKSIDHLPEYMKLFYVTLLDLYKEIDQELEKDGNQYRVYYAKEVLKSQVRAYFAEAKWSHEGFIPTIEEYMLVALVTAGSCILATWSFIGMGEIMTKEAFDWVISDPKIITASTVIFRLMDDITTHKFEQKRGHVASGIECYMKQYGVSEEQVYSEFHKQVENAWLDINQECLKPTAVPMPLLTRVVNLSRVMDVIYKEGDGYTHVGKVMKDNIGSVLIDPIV

The target in assay [4] is T4, VvivMATPS01 (Vitis vinifera, UniProt A0A482ANT9).
T4 construct: full-length ORF from cDNA; expressed in yeast GT051 under GAL1 promoter
T4 sequence (A0A482ANT9 1-555): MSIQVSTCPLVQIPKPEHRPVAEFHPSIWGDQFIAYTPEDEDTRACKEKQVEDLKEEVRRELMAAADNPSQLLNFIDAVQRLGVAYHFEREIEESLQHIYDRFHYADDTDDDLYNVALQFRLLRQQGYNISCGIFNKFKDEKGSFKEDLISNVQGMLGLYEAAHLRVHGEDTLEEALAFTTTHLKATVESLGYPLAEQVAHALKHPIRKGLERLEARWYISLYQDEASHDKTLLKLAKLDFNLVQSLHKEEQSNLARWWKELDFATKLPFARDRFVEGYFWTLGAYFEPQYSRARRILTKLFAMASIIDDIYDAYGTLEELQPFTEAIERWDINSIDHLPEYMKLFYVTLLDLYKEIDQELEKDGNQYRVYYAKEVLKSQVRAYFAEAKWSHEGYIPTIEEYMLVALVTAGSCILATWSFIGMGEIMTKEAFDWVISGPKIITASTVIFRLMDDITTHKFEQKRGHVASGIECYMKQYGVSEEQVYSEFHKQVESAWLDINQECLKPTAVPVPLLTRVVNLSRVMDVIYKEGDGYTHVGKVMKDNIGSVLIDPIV

The target in assay [5] is T5, VvivSBTPS02 (Vitis vinifera, UniProt A0A482AJK8).
T5 construct: full-length ORF from cDNA; expressed in yeast GT051 under GAL1 promoter
T5 sequence (A0A482AJK8 1-555): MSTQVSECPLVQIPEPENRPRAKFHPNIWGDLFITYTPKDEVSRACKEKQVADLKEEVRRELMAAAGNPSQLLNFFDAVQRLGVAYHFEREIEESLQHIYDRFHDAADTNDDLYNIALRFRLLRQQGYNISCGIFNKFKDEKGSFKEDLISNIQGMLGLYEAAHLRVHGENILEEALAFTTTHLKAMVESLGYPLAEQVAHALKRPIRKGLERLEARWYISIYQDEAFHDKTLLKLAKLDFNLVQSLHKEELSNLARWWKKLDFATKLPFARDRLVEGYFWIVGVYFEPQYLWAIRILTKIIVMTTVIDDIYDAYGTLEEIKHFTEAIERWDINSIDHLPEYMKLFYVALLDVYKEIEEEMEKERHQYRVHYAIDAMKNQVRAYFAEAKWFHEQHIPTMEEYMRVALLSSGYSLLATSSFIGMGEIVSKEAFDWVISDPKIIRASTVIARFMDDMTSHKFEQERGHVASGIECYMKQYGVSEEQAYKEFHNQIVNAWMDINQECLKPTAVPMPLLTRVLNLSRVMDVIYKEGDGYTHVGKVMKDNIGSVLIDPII

Assay [6] deals with T6, VvivMATPS27 (Vitis vinifera, UniProt E5GAF4).
T6 construct: full-length ORF from cDNA; expressed in yeast GT051 under GAL1 promoter
T6 sequence (E5GAF4 1-557): T2 sequence (A0A482AKK8 1-557) with F27Y

For assay [7], the target named is T7, VvivMATPS28 (Vitis vinifera, UniProt A0A482AJV9).
T7 construct: full-length ORF from cDNA; expressed in yeast GT051 under GAL1 promoter
T7 sequence (A0A482AJV9 1-558): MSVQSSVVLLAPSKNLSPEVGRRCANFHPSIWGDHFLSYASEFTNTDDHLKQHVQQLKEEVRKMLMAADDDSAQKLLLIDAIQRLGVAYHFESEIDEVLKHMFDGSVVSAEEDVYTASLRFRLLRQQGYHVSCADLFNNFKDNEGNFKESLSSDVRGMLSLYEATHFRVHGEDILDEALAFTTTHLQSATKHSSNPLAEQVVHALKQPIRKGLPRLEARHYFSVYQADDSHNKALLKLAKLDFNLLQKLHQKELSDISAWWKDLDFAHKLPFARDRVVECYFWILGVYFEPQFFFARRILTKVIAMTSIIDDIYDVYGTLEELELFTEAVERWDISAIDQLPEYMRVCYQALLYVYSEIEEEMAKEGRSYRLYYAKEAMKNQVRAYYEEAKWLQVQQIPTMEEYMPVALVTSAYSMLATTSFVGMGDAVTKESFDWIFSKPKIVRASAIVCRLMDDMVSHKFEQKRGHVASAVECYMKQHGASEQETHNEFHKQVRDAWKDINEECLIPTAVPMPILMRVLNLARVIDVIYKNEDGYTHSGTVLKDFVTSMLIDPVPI

SMILES strings stand for the structures. Residue numbers refer to the chain shown, from its start.

`CC(C)=CCC/C(C)=C/CC/C(C)=C/COP(=O)(O)OP(=O)(O)O` [FPP]: the “in vivo yeast expression, HS-SPME-GC-MS of volatiles” value in assay [1], in assay [2], in assay [3], in assay [4], in assay [5] and in assay [6] was “increase the metabolic flux for the FPP terpene precursor” in each case. In assay [7], the “in vivo yeast expression, HS-SPME-GC-MS of volatiles” value is “increase the metabolic flux for the FPP terpene precursor”.
